Laboratory results taken from patent US10179913B2, “MicroRNA-328 anti-sense composition and therapeutic use” (KAOHSIUNG MEDICAL UNIVERSITY, priority 2015, dated 2019).
Entries after “also recorded” stand apart in the source; their conditions may differ. Marks after values point to notes of the source that are not given here. l = locked nucleic acid (LNA); d = 2'-deoxy (DNA)

How the values were obtained:
miR-328 = experiment: In vitro inhibition of miR-328 expression by antisense oligonucleotides transfected into ARPE-19 RPE cells (qRT-PCR, normalized to U6); format: cell-based, human; conditions: for inhibitory effect on miR-328 expression: RPE cells (ARPE-19), Lipofectamine 2000 transfection, 24 hours; for inhibition of miR-328 expression in vitro (in words): RPE cells, 30, 50 and 100 nM
Procedure: Cell Culture, Treatments, and Transfection
An RPE cell line called “ARPE-19” was grown in Dulbecco's modified Eagle's medium (DMEM)/F12 medium. The cell line was grown with 1% penicillin/streptomycin and 10% heat-inactivated fetal bovine serum (FBS) at 37° C. in a humidified atmosphere of 95% air/[…] carbon dioxide (CO2). To conduct the transfection experiments, cells were seeded into a 12-well plate at a density of 1×10^5 cells/well. After achieving 70% confluence in a well, antisense oligonucleotides (concentrations of 30, 50 and 100 nM) were transfected with Lipofectamine 2000 (Invitrogen) according to the manufacturer's instructions. After 24 hours of incubation, cells were lysed for further studies.
Detect the Inhibition of miR-328 Expression by Antisense Oligonucleotides
Total RNA was extracted from cultured cells using Trizol according to the manufacturer's instructions. RNA purity was checked using A260/A280 readings. miR-328 was first reversed transcribed to miR-328 cDNA using the following procedure: 5 ng of RNA was reverse transcribed with miR-328 specific primer and MultiScribe reverse transcriptase kit (Applied Biosystems). To measure the miR-328 expression, quantitative real-time PCR was performed on an ABI 7500 real-time PCR machine (Applied Biosystems) with miR-328 specific probe according to manufacturer's instructions (Applied Biosystems). The inhibitory effect by antisense oligonucleotides was evaluated by measuring the level of miR-328 cDNA by quantitative real-time PCR. The expression level of miR-328 was normalized to that of a small non-coding nuclear RNA U6 as the internal control.

[1] = tested on: myopia-induced C57BL/6J mice; experiment: Example 4: efficacy in myopia-induced mice, delta axial length; format: in vivo; conditions: for reduction of delta axial length compared to control group: 1 μM on day 30, 37 and 44, versus saline; for activity in treating myopia in mice (in words) / Delta axial length, mm mean (SD) / average delta axial length compared with control animals (in words): 1 μM; for activity in treating myopia in mice (in words): decrease of average axial length; for Delta axial length, mm mean (SD): right (myopia) minus left eye, 30 μL to right eye on day 30, 37 and 44, eyes collected day 51; for average delta axial length compared with control animals (in words): versus saline, Mann-Whitney U test
Procedure: The 21 days old C57BL/6J mice were purchased from the National Laboratory Animal Center, Taiwan. All animal experiments were in compliance with the ARVO Statement for the Use of Animals in Ophthalmic and Vision Research. The procedure of myopia induction is described briefly as the following: Right eyes of the 23 days old mice were covered to induce myopia (i.e. nearsightedness) and the left eyes were uncovered. Then the right eyes of the myopia-induced mice were treated with 30 μL of saline (i.e. control group), DNA16mer, DNA17mer, LNA403, LNA404, or LNA405, at 1 μM on 30th, 37th and 44th day. Mice were sacrificed on 51th day and the eyes were collected. The isolated eyes were photographed under a dissection microscope and the axial lengths were measured using […] Myopia (nearsightedness) causes elongation of axial length, which is the major pathological change in myopia. The difference of axial length (i.e. delta axial length) between the covered right eye and the non-covered left eye of the same mouse indicates the severity of myopia. Statistical evaluation was done by using Mann-Whitney U test. Analysis with p-values<0.05 being considered significant.

[2] = tested on: myopia-induced C57BL/6J mice; experiment: Example 5: validation of DNA 16mer and LNA 403 versus atropine in myopia-induced mice; format: in vivo; conditions: for Mean of delta AXL: right eye covered 4 weeks, 30 μL on day 30, 37 and 44, day 51
Procedure: The 21 days old C57BL/6J mice were purchased from the National Laboratory Animal Center, Taiwan. All animal experiments were in compliance with the ARVO Statement for the Use of Animals in Ophthalmic and Vision Research. The procedure of myopia induction is described briefly as the following: Right eyes of the 23 days old mice were covered for 4 weeks to induce myopia (i.e. nearsightedness) and the left eyes were uncovered. Then the right eyes of the myopia-induced mice were treated with 30 μL of saline (i.e. negative control group), 1% atropine (i.e. positive control group), DNA16mer or LNA403 at 1 μM on 30th, 37th and 44th day. Mice were sacrificed on 51th day and the eyes were collected. The isolated eyes were photographed under a dissection microscope and the axial lengths were measured using imageJ and a proprietary software for automatic measure. Myopia (nearsightedness) causes elongation of axial length, which is the major pathological change in myopia. The difference of axial length (i.e. delta axial length) between the covered right eye and the non-covered left eye of the same mouse indicates the severity of myopia. Statistical evaluation was done by using Mann-Whitney U test. Analysis with p-values <0.05 being considered significant.

Safety in animal studies = format: in vivo
[3] = tested on: myopia-induced C57BL/6J mice; experiment: Example 6: confirmation of DNA 16mer by a CRO in myopia-induced mice; format: in vivo; conditions: for left eye axial, mm Mean: left eye uncovered
Text: The procedure of myopia induction is: The 21 days old C57BL/6J mice were purchased from the National Laboratory Animal Center, Taiwan. All animal experiments were in compliance with the ARVO Statement for the Use of Animals in Ophthalmic and Vision Research. The procedure of myopia induction is described briefly as the following: Right eyes of the 23 days old mice were covered for 4 weeks to induce myopia and the left eyes were uncovered. Then the right eyes of the myopia-induced mice were treated with […], of saline (i.e. negative control group), 1% atropine (i.e. positive control group), 10 nM, 100 nM, and 1 μM of DNA 16mer on 30th, 37th and 44th day. Mice were sacrificed on 51th day and the eyes were collected. The isolated eyes were photographed under a dissection microscope and the axial lengths were measured using imageJ and a proprietary software for automatic measure. Myopia (nearsightedness) causes elongation of axial length, which is the major pathological change in myopia. The difference of axial length (i.e. delta axial length) between the covered right eye and the non-covered left eye of the same mouse indicates the severity of myopia.

myopic pigmented rabbits = experiment: Example 7: DNA 16mer in myopic pigmented rabbits, delta axial length by A-scan; format: in vivo, rabbit; conditions: 20 μL to right eye every other day from day 35, AXL of day 61
Procedure: The procedure of myopia induction: The 3 days old pigmented rabbits were purchased from the DA-ZONG livestock farm, Taiwan. All animal experiments were in compliance with the ARVO Statement for the Use of Animals in Ophthalmic and Vision Research. On the age of 7 days, the right eye of the rabbit was covered for 8 weeks to induce myopia, and the left eye left uncovered. The axial lengths (AXL) of both eyes were measured by A-scan (Sonomed®, PACSCAN 300A, USA) once a week since day 21. We defined myopia as right eye AXL is longer than left eye AXL by 0.2 mm or longer on day 35. If a rabbit reached this defined criterion, the right eye of such a myopic rabbit was treated with […], of saline (i.e. control group) or DNA16mer (20 μL) at 10 μM or 50 uM every other day since day 35 till day 63. The final AXL measured on day 61 was used to obtain to calculate the difference between right AXL and left AXL (i.e. delta AXL). If there is no therapeutic effect, the delta AXL will be a positive value.

Molecule	inhibitory effect on miR-328 expression (miR-328; 30 nM) [%]	inhibitory effect on miR-328 expression (miR-328; 50 nM) [%]	inhibitory effect on miR-328 expression (miR-328; 100 nM) [%]	inhibition of miR-328 expression in vitro (in words) (miR-328)	reduction of delta axial length compared to control group [1] [mm]	Delta axial length, mm mean (SD) [1]	also measured
5′-+C*+G*+G*+A*A*G*G*G*C*A*G*A*G*A*G*G*+G*+C*+C*+A-3′ (antisense CGGAAGGGCAGAGAGGGCCA; sugars from the 5' end l4 d12 l4, all phosphorothioate, methylation of C not given here) [LNA403, LNA-modified and PS bond-modified anti-sense miR-328 oligonucleotide, 20 mer]	97	97	90	inhibited	0.054	−0.036 (0.079)* mm	activity in treating myopia in mice (in words) [1]: effective in treating myopia in mice; activity in treating myopia in mice (in words) ([1]; listed as 403): exhibited an activity for treating myopia; efficacy in reducing elongation of eyeball compared with 1% atropine (in words) ([2]; 1 μM): more effective than 1% atropine; Mean of delta AXL ([2]; 1 μM): −0.052
5′-+G*+A*+A*+G*G*G*C*A*G*A*G*A*G*G*+G*+C*+C*+A-3′ (antisense GAAGGGCAGAGAGGGCCA; sugars from the 5' end l4 d10 l4, all phosphorothioate, methylation of C not given here) [LNA405, LNA-modified and PS bond-modified anti-sense miR-328 oligonucleotide, 18 mer]	98	98	99	inhibited	0.035	−0.017 (0.054) mm	
5′-+G*+G*+A*+A*G*G*G*C*A*G*A*G*A*G*G*+G*+C*+C*+A-3′ (antisense GGAAGGGCAGAGAGGGCCA; sugars from the 5' end l4 d11 l4, all phosphorothioate, methylation of C not given here) [LNA404, LNA-modified and PS bond-modified anti-sense miR-328 oligonucleotide, 19 mer]	98	98	99	inhibited	0.025	−0.007 (0.100) mm	
5′-AAGGGCAGAGAGGGCCA-3′ (DNA, backbone not given here) [DNA 17mer, anti-sense miR-328 oligodeoxyribonucleotide]	43	41	48	inhibited	0.065	−0.047 (0.073)* mm	activity in treating myopia in mice (in words) ([1]; listed as 17mer): exhibited an activity for treating myopia; activity in treating myopia in mice (in words) ([1]; listed as DNA17mer): effective in treating myopia in mice; average delta axial length compared with control animals (in words) [1]: statistically significantly smaller; safety in animal studies (in words) (Safety in animal studies): safe
5′-AGGGCAGAGAGGGCCA-3′ (DNA, backbone not given here) [DNA 16mer, anti-sense miR-328 oligodeoxyribonucleotide]	39	35	49	inhibited	0.077	−0.059 (0.061)* mm	activity in treating myopia in mice (in words) ([1]; listed as 16mer): exhibited an activity for treating myopia; activity in treating myopia in mice (in words) ([1]; listed as DNA16mer): effective in treating myopia in mice; average delta axial length compared with control animals (in words) [1]: statistically significantly smaller; efficacy in reducing elongation of eyeball compared with 1% atropine (in words) ([2]; 1 μM): more effective than 1% atropine; Mean of delta AXL ([2]; 1 μM): −0.055; Delta axial length Mean ([3]; 10 nM): −0.056; right eye axial, mm Mean ([3]; 10 nM to right (myopia) eye): 3.083 mm; left eye axial, mm Mean ([3]; 10 nM to right eye): 3.139 mm; Delta axial length Mean ([3]; 100 nM): −0.069; right eye axial, mm Mean ([3]; 100 nM to right (myopia) eye): 3.023 mm; left eye axial, mm Mean ([3]; 100 nM to right eye): 3.092 mm; Delta axial length Mean ([3]; 1 μM): −0.058; right eye axial, mm Mean ([3]; 1 μM to right (myopia) eye): 3.052 mm; left eye axial, mm Mean ([3]; 1 μM to right eye): 3.110 mm; Delta axial length Mean (myopic pigmented rabbits; 10 μM): −0.234; Delta axial length Mean (myopic pigmented rabbits; 50 μM): −0.370; safety in animal studies (in words) (Safety in animal studies): safe
5′-GGGCAGAGAGGGCCA-3′ (DNA, backbone not given here) [15mer, anti-sense miR-328 oligodeoxyribonucleotide]				did not show any activity; also recorded: no inhibitory effect			
CN1[C@@H]2CC[C@H]1C[C@@H](OC(=O)C(CO)c1ccccc1)C2 (stereo partly drawn) [Atropine, atropine, reference compound]							Mean of delta AXL ([2]; 1% atropine): −0.037; Delta axial length Mean ([3]; 1% atropine): −0.060; right eye axial, mm Mean ([3]; 1% atropine to right (myopia) eye): 3.049 mm; left eye axial, mm Mean ([3]; 1% atropine to right eye): 3.108 mm
